Experimental data reported in patent US20100113421A1, “NON-NUCLEOSIDE REVERSE TRANSCRIPTASE INHIBITORS” (priority 2006, published 2010).

The molecules below were run on HIV strain containing the Y181C mutation (assay: Spread assay, Y181C mutant strain). Settings: Human immunodeficiency virus 1; spread assay, 10% FBS, Y181C mutant strain; read-out: CIC95.
Assay type: cell-based
Experimental: Assays for the inhibition of acute HIV-1 infection of T-lymphoid cells (alternatively referred to herein as the “spread assay”) were conducted in accordance with Vacca, J. P. et al., Proc. Natl. Acad. Sci. USA 1994, 91: 4096. The assays (using 10% FBS) tested for inhibition of wild type HIV-1 and of HIV strains containing the Y181C or K103N mutation. […] (Note that the compound of Example 6 was tested only up to a 833 nM concentration and the CIC95 value was determined to be >833 nM. The compound of Example 78 was not tested in the Y1818C assay.) The compounds of Examples 1 to 119 (including Examples 70A and 70B) had CIC95 values of less than 1000 nanomolar in the assay employing the K103N mutant strain. In an analogous assay employing a mutant strain containing both the K103N and Y181C mutations, the compounds of Examples 70A, 70B and 78-115 had CIC95 values of less than 1000 nanomolar.

How did the IC95 turn out when Cc1c(C(=O)N(C)Cc2ccc(Cl)cc2F)[nH]c(C(N)=O)c1S(=O)(=O)c1cc(Cl)cc(Cl)c1 [Example 35, N-(4-chloro-2-fluorobenzyl)-N,3-dimethyl-4-(3,5-dichlorophenylsulfonyl)-1H-pyrrole-2,5-dicarboxamide] was run?
The IC95 was less than 8 µM.

With COc1cccc(CN(C)C(=O)c2[nH]c(C(N)=O)c(S(=O)(=O)c3ccccc3)c2C)c1 [Example 36, N-(3-methoxyobenzyl)-N,3-dimethyl-4-(phenylsulfonyl)-1H-pyrrole-2,5-dicarboxamide] as the molecule, how does the IC95 read?
The IC95 was less than 8 µM.

For Cc1c(C(=O)N(C)Cc2ccsc2)[nH]c(C(N)=O)c1S(=O)(=O)c1ccccc1 [Example 38, N,3-dimethyl-4-(phenylsulfonyl)-N-(3-thienylmethyl)-1H-pyrrole-2,5-dicarboxamide], which IC95 is on record?
The IC95 was less than 8 µM.

Cc1c(C(=O)N(C)Cc2ccncc2Cl)[nH]c(C(N)=O)c1S(=O)(=O)c1ccccc1 [Example 39, N-[(3-chloro-4-pyridinyl)methyl]-N,3-dimethyl-4-(phenylsulfonyl)-1H-pyrrole-2,5-dicarboxamide] was tested. Which IC95 did it give?
The IC95 was less than 8 µM.

With Cc1cc(C)cc(S(=O)(=O)c2c(C(N)=O)[nH]c(C(=O)N(C)Cc3ccc4ncccc4c3)c2C)c1 [Example 40, 4-[(3,5-Dimethylphenyl)sulfonyl]-N,3-dimethyl-N-(6-quinolinylmethyl)-1H-pyrrole-2,5-dicarboxamide] as the molecule, how does the IC95 read?
The IC95 was less than 8 µM.

Which IC95 does the source give for Cc1c(C(=O)N(C)Cc2cc3cccnc3cc2Cl)[nH]c(C(N)=O)c1S(=O)(=O)c1ccccc1 [Example 41, N-[(7-Chloro-6-quinolinyl)methyl]-N,3-dimethyl-4-(phenylsulfonyl)-1H-pyrrole-2,5-dicarboxamide] here?
Its IC95 is less than 8 µM.

Which IC95 does the source give for Cc1c(C(=O)N(C)Cc2ccc3ncccc3c2Cl)[nH]c(C(N)=O)c1S(=O)(=O)c1ccccc1 [Example 42, N-[(5-Chloro-6-quinolinyl)methyl]-N,3-dimethyl-4-(phenylsulfonyl)-1H-pyrrole-2,5-dicarboxamide] here?
The IC95 was less than 8 µM.

With Cc1c(C(=O)N(C)Cc2ccc3ncccc3c2)[nH]c(C(N)=O)c1S(=O)(=O)c1ccccc1 [Example 43] as the molecule, how does the IC95 read?
The IC95 was less than 8 µM.

For Cc1cccc(S(=O)(=O)c2c(C(N)=O)[nH]c(C(=O)N(C)Cc3ccc4ncccc4c3)c2C)c1 [Example 44], which IC95 is on record?
The IC95 was less than 8 µM.

Cc1c(C(=O)N(C)Cc2ccc3ncccc3c2)[nH]c(C(N)=O)c1S(=O)(=O)c1cccc(F)c1 [Example 45] was tested. Which IC95 did it give?
Its IC95 is less than 8 µM.

Which IC95 does the source give for Cc1c(C(=O)N(C)Cc2ccc3ncccc3c2)[nH]c(C(N)=O)c1S(=O)(=O)c1cccc(C(F)(F)F)c1 [Example 46, N,3-dimethyl-N-(6-quinolinylmethyl)-4-{[3-(trifluoromethyl)phenyl]sulfonyl}-1H-pyrrole-2,5-dicarboxamide] here?
Its IC95 is less than 8 µM.

With Cc1cc(C)cc(S(=O)(=O)c2c(C(N)=O)[nH]c(C(=O)N(C)Cc3ccc4ncccc4c3Cl)c2C)c1 [Example 47, N-[(5-chloro-6-quinolinyl)methyl]-4-[(3,5-dimethylphenyl)sulfonyl]-N,3-dimethyl-1H-pyrrole-2,5-dicarboxamide] as the molecule, how does the IC95 read?
The IC95 was less than 8 µM.

For Cc1cc(C)cc(S(=O)(=O)c2c(C(N)=O)[nH]c(C(=O)N(C)Cc3cc4cccnc4cc3Cl)c2C)c1 [Example 48, N-[(7-chloro-6-quinolinyl)methyl]-4-[(3,5-dimethylphenyl)sulfonyl]-N,3-dimethyl-1H-pyrrole-2,5-dicarboxamide], which IC95 is on record?
Its IC95 is less than 8 µM.

With Cc1c(C(=O)N(C)Cc2ccc3ncccc3c2Cl)[nH]c(C(N)=O)c1S(=O)(=O)c1cc(F)cc(F)c1 [Example 49, N-[(5-chloro-6-quinolinyl)methyl]-4-[(3,5-difluorophenyl)sulfonyl]-N,3-dimethyl-1H-pyrrole-2,5-dicarboxamide] as the molecule, how does the IC95 read?
The IC95 was less than 8 µM.

With Cc1c(C(=O)N(C)Cc2cc3cccnc3cc2Cl)[nH]c(C(N)=O)c1S(=O)(=O)c1cc(F)cc(F)c1 [Example 50, N-[(7-chloro-6-quinolinyl)methyl]-4-[(3,5-difluorophenyl)sulfonyl]-N,3-dimethyl-1H-pyrrole-2,5-dicarboxamide] as the molecule, how does the IC95 read?
Its IC95 is less than 8 µM.
